Results from patent US4068074A, “Cephalosporin derivatives having at the 3-position of the cephem ring a heterocyclic thiomethyl group with a carboxy or sulfo group and at the 7-position of the cephem ring an α-heterocylic acylaminophenyl-acetamide group” (priority 1974, dated 1978).
≈ marks a conversion by molar mass, not a printed value. Like-named read-outs stand apart in the source and are kept apart here.

How the values were obtained:
[1] = test system: Proteus vulgaris OXK US; assay: MIC against bacteria (Table I), strain (1); type: cell-based; conditions: (1) Proteus vulgaris OXK US; read-out: MIC
Source text: (§1) Now, for illustrating the excellent pharmacological effects of the compounds of this invention, the values of MIC (γ/ml.) of the compounds against various bacteria are shown in Table 1, in which the compounds of this invention used are shown by example numbers.
(1) Proteus vulgaris OXK US

[2] = test system: Shigella sonnei II 37148; assay: MIC against bacteria (Table I), strain (12); type: cell-based; conditions: II37148; (12) Shigella sonnei II 37148; read-out: MIC
Source text: as §1

[3] = test system: Pseudomonas aeruginosa 99 (Gentamycin resistant); assay: MIC against bacteria (Table I), strain (5); type: cell-based
Source text: as §1
(5) Pseudomonas aeruginosa 99 (Gentamycin resistant)

[4] = test system: Proteus mirabilis IXM OM-19; assay: MIC against bacteria (Table I), strain (3); type: cell-based; conditions: IXMOM19; (3) Proteus mirabilis IXM OM-19; read-out: MIC
Source text: as §1
(3) Proteus mirabilis IXM OM-19

[5] = test system: Proteus vulgaris 0X 19US; assay: MIC against bacteria (Table I), strain (2); type: cell-based; conditions: 0X19US
Source text: as §1
(2) Proteus vulgaris 0X 19US

[6] = test system: Pseudomonas aeruginosa ATCC 8689; assay: MIC against bacteria (Table I), strain (4); type: cell-based; conditions: ATCC8689; (4) Pseudomonas aeruginosa ATCC 8689; read-out: MIC
Source text: as §1
(4) Pseudomonas aeruginosa ATCC 8689

[7] = test system: Staphylococcus Shimanishi; assay: MIC against bacteria (Table I), strain (17); type: cell-based
Source text: as §1
(17) Staphylococcus Shimanishi

[8] = test system: Salmonella typhi H901 W; assay: MIC against bacteria (Table I), strain (9); type: cell-based; conditions: Salmonella enterica, TYPHI
Source text: as §1
(9) Salmonella typhi H901 W

[9] = test system: Micrococcus flavus ATCC 10240; assay: MIC against bacteria (Table I), strain (15); type: cell-based; conditions: ATCC10240
Source text: as §1
(15) Micrococcus flavus ATCC 10240

[10] = test system: Bacillus subtilis ATCC 6633; assay: MIC against bacteria (Table I), strain (14); type: cell-based; conditions: ATCC6633; (14) Bacillus subtilis ATCC 6633; read-out: MIC
Source text: as §1
(14) Bacillus subtilis ATCC 6633

[11] = test system: Shigella flexneri 2a 1675; assay: MIC against bacteria (Table I), strain (11); type: cell-based; conditions: 2A1675; (11) Shigella flexneri 2a 1675; read-out: MIC
Source text: as §1

[12] = Solubility of salts in water (Table 2); type: physicochemical; conditions: disodium salt, water, showing pH 7.4; read-out: Solubility: disodium salt dissolved in water in an amount of
Source text: An advantage of the compounds of this invention is that the salts, for example, sodium salts of these compounds are readily soluble in water at pH of living bodies, which makes them suitable for injections at high concentration. The solubility of these compounds are illustrated in Table 2 together with a control example.

[13] = test system: Staphylococcus Onuma; assay: MIC against bacteria (Table I), strain (18); type: cell-based
Source text: as §1
(18) Staphylococcus Onuma

[14] = test system: Escherichia coli kauffmann 0-1; assay: MIC against bacteria (Table I), strain (7); type: cell-based; conditions: Escherichia coli
Source text: as §1
(7) Escherichia coli kauffmann 0-1

[15] = test system: Staphylococcus aureus 209P; assay: MIC against bacteria (Table I), strain (16); type: cell-based
Source text: as §1
(16) Staphylococcus aureus 209P

[16] = test system: Klebsiella pneumoniae ATCC 10031; assay: MIC against bacteria (Table I), strain (8); type: cell-based; conditions: ATCC10031
Source text: as §1
(8) Klebsiella pneumoniae ATCC 10031

[17] = test system: Bacillus megatherium 10778; assay: MIC against bacteria (Table I), strain (13); type: cell-based; conditions: (13) Bacillus megatherium 10778; read-out: MIC
Source text: as §1

[18] = test system: Psuedomonas ovalis IMA 1002; assay: MIC against bacteria (Table I), strain (6); type: cell-based; conditions: (6) Psuedomonas ovalis IMA 1002; read-out: MIC
Source text: as §1
(6) Psuedomonas ovalis IMA 1002

[19] = test system: Salmonella enteritidis; assay: MIC against bacteria (Table I), strain (10); type: cell-based; conditions: Salmonella enterica
Source text: as §1
(10) Salmonella enteritidis

[20] = (5) Pseudomonas aeruginosa 99 (Gentamycin resistant), read-out: MIC
[21] = (2) Proteus vulgaris 0X 19US, read-out: MIC
[22] = (17) Staphylococcus Shimanishi, read-out: MIC
[23] = (15) Micrococcus flavus ATCC 10240, read-out: MIC
[24] = (18) Staphylococcus Onuma, read-out: MIC
[25] = (8) Klebsiella pneumoniae ATCC 10031, read-out: MIC
[26] = (16) Staphylococcus aureus 209P, read-out: MIC
[27] = (10) Salmonella enteritidis, read-out: MIC

SMILES | MIC [1] | MIC [2] | MIC [3, 20] | MIC [4] | MIC [5, 21] | MIC [6] | MIC [7, 22] | MIC [8] | MIC [9, 23] | MIC [10] | MIC [11] | solubility [12] | MIC [13, 24] | MIC [14] | MIC ([15]; Staphylococcus aureus, 209P) | MIC [16, 25] | MIC [17] | MIC [18] | MIC [15, 26] | MIC [19, 27] | further results
Cc1nc(SCC2=C(C(=O)O)N3C(=O)[C@@H](NC(=O)[C@H](NC(=O)c4cnccc4O)c4ccccc4)[C@H]3SC2)sc1CC(=O)O [Example 23, 7-[D-α-(4-hydroxynicotinoylamido)-α-phenylacetamido]-3-(5-carboxymethyl-4-methylthiazol-2-yl)thiomethyl-Δ^3-cephem-4-carboxylic acid] | < 0.09 µg/mL | 3.13 µg/mL (≈ 4.77 µM) | 6.25 µg/mL (≈ 9.53 µM) | 0.19 µg/mL (≈ 0.29 µM) | < 0.09 µg/mL | 12.5 µg/mL (≈ 19.1 µM) | 12.5 µg/mL (≈ 19.1 µM) | 1.56 µg/mL (≈ 2.38 µM) | 12.5 µg/mL (≈ 19.1 µM) | 0.78 µg/mL (≈ 1.19 µM) | 1.56 µg/mL (≈ 2.38 µM) | > 200 mg/mL | 12.5 µg/mL (≈ 19.1 µM) | 1.56 µg/mL (≈ 2.38 µM) | 3.13 µg/mL (≈ 4.77 µM) | 6.25 µg/mL (≈ 9.53 µM) | 0.39 µg/mL (≈ 0.595 µM) | 12.5 µg/mL (≈ 19.1 µM) |  |  | MIC ([19]; ENTERITIDIS): 0.39 µg/mL (≈ 0.595 µM)
Cc1nc(SCC2=C(C(=O)O)N3C(=O)[C@@H](NC(=O)[C@H](NC(=O)c4cnccc4O)c4ccccc4)[C@H]3SC2)sc1SCC(=O)O [Example 24, 7-[D-α-(4-hydroxynicotinoylamido)-α-phenylacetamido]-3-(5-carboxymethylthio-4-methylthiazol-2-yl)thiomethyl-Δ^3-cephem-4-carboxylic acid] | < 0.09 µg/mL | 3.13 µg/mL (≈ 4.55 µM) | 6.25 µg/mL (≈ 9.09 µM) | 0.19 µg/mL (≈ 0.276 µM) | < 0.09 µg/mL | 12.5 µg/mL (≈ 18.2 µM) | 6.25 µg/mL (≈ 9.09 µM) | 1.56 µg/mL (≈ 2.27 µM) | 6.25 µg/mL (≈ 9.09 µM) | 0.39 µg/mL (≈ 0.567 µM) | 1.56 µg/mL (≈ 2.27 µM) | > 200 mg/mL | 6.25 µg/mL (≈ 9.09 µM) | 3.13 µg/mL (≈ 4.55 µM) |  | 6.25 µg/mL (≈ 9.09 µM) | 0.78 µg/mL (≈ 1.13 µM) | 12.5 µg/mL (≈ 18.2 µM) | 0.78 µg/mL (≈ 1.13 µM) | 0.78 µg/mL (≈ 1.13 µM) | 
O=C(O)Cc1nnc(SCC2=C(C(=O)O)N3C(=O)[C@@H](NC(=O)[C@H](NC(=O)c4cnccc4O)c4ccccc4)[C@H]3SC2)s1 [Example 25, 7-[D-α-(4-hydroxynicotinoylamido)-α-phenylacetamido]-3-(5-carboxymethyl-1,3,4-thiadiazol-2-yl)thiomethyl-Δ^3-cephem-4-carboxylic acid] | < 0.09 µg/mL | 6.25 µg/mL (≈ 9.72 µM) |  | 0.39 µg/mL (≈ 0.607 µM) |  | 12.5 µg/mL (≈ 19.4 µM) | 3.13 µg/mL (≈ 4.87 µM) | 0.39 µg/mL (≈ 0.607 µM) |  | 0.39 µg/mL (≈ 0.607 µM) | 1.56 µg/mL (≈ 2.43 µM) | > 200 mg/mL |  | 3.13 µg/mL (≈ 4.87 µM) |  |  | 0.39 µg/mL (≈ 0.607 µM) | 12.5 µg/mL (≈ 19.4 µM) | 0.78 µg/mL (≈ 1.21 µM) | 0.19 µg/mL (≈ 0.296 µM) | MIC ([3]; Pseudomonas aeruginosa): 6.25 µg/mL (≈ 9.72 µM); MIC ([5]; Proteus vulgaris): 1.56 µg/mL (≈ 2.43 µM); MIC ([9]; Micrococcus flavus): 6.25 µg/mL (≈ 9.72 µM); MIC ([13]; Staphylococcus): 6.25 µg/mL (≈ 9.72 µM); MIC ([16]; Klebsiella pneumoniae): 6.25 µg/mL (≈ 9.72 µM)
COc1ccncc1C(=O)N[C@@H](C(=O)N[C@@H]1C(=O)N2C(C(=O)O)=C(CSc3nnc(SCC(=O)O)s3)CS[C@H]12)c1ccccc1 [Example 26, 7-[D-α-(4-methoxynicotinoylamido)-α-phenylacetamido]-3-(5-carboxymethylthio-1,3,4-thiadiazole-2-yl)thiomethyl-Δ^3-cephem-4-carboxylic acid] | 0.19 µg/mL (≈ 0.276 µM) | 6.25 µg/mL (≈ 9.07 µM) | 12.5 µg/mL (≈ 18.1 µM) | 0.78 µg/mL (≈ 1.13 µM) | 0.39 µg/mL (≈ 0.566 µM) | 12.5 µg/mL (≈ 18.1 µM) |  | 6.25 µg/mL (≈ 9.07 µM) |  | 0.78 µg/mL (≈ 1.13 µM) | 3.13 µg/mL (≈ 4.54 µM) | > 200 mg/mL | 12.5 µg/mL (≈ 18.1 µM) | 6.25 µg/mL (≈ 9.07 µM) | 1.56 µg/mL (≈ 2.26 µM) | 12.5 µg/mL (≈ 18.1 µM) | 0.78 µg/mL (≈ 1.13 µM) | 25 µg/mL (≈ 36.3 µM) |  | 1.56 µg/mL (≈ 2.26 µM) | MIC ([7]; Staphylococcus): 6.25 µg/mL (≈ 9.07 µM); MIC ([9]; Micrococcus flavus): 6.25 µg/mL (≈ 9.07 µM)
